According to patent publication US20260327204A1, “DEGRADERS OF CYCLIN-DEPENDENT KINASE 12/13, COMPOSITIONS, AND USES THEREOF” (ZHEJIANG UNIVERSITY, priority 2023, published 2026):
Like-named read-outs stand apart in the source and are kept apart here.

Key:
[1] = Liver microsome stability, monkey; type: in vitro ADME; settings: liver microsomes
Method: (§1) • Compounds: Ketanserin, Formula 18, Formula 45 • Liver microsomes: Human liver microsomes (purchased from BioreclamationIVT); Dog, mouse, rat, and monkey liver microsomes (purchased from Xenotech)
(§2) Preparation of 500 μM compound solution: Add 5 μL of 10 mM compound solution and 95 μL of DMSO to an EP tube.
(§3) Preparation of solution containing 0.75 mg/mL liver microsomes and 1.5 μM compound: Add 1.5 μL of the 500 μM compound solution, 18.75 μL of the 20 mg/mL liver microsome solution, and 479.75 μL of PBS to an EP tube.
(§4) Preparation of 6 mM NADPH solution: Dissolve 5 mg of NADPH in 1 mL of PBS solution.
(§5) Add 30 μL of the solution containing 0.75 mg/mL liver microsomes and a concentration gradient of the compound to a 96-well plate. Add 15 μL of the 6 mM NADPH solution and 150 μL of a 1:1 acetonitrile:methanol solution containing an internal standard (IS). Vortex and centrifuge at 6,000 rpm for 10 min. 80 μL of the supernatant from each concentration sample is transferred to a 96-well plate containing 140 μL of pure water for LC/MS detection (injection volume of […]). […]
(§6) 80 μL of the supernatant from each well is transferred to a 96-well plate containing 140 μL of pure water for LC/MS detection (injection volume of […]). The compound concentration value is determined by comparing the corresponding mass spectrometry peak area with the standard curve. […]

[2] = target: CDK12 (Homo sapiens, UniProt Q9NYV4); assay: Western blot degradation of CDK12 (Example 2); type: cell-based; set-up: degradation of CDK12/13 protein in leukemia cells KASUMI-1, MV4-11, and Jurkat; endogenous in cells
Procedure, shortened: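 Leukemia lines KASUMI-1, MV4-11, Jurkat, plus MDA-MB-231 for a concentration series, treated at 0.01–3 μM for 3–48 h at 37 °C against DMSO control. Lysates in 4% SDS; CDK12/13 band intensity normalized to β-Actin or GAPDH to give degradation rate.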

[3] = Liver microsome stability, rat; type: in vitro ADME; settings: liver microsomes
Method: as §1, §2, §3, §4, §5, §6

[4] = target: T1, CDK13 (Homo sapiens, UniProt Q14004); assay: Western blot degradation of CDK13 (Example 2); type: cell-based; set-up: degradation of CDK12/13 protein in leukemia cells KASUMI-1, MV4-11, and Jurkat; endogenous in cells
[5] = target: T1, CDK13; assay: Western blot degradation of CDK13 (Example 2); type: cell-based; set-up: degradation of CDK12/13 protein in leukemia cells KASUMI-1, MV4-11, and Jurkat; endogenous in cells; settings: HCT116, colorectal cancer cells
[6] = Liver microsome stability, human; type: in vitro ADME; settings: liver microsomes
Method: as §1, §2, §3, §4, §5, §6

[7] = Liver microsome stability, dog; type: in vitro ADME; settings: liver microsomes
Method: as §1, §2, §3, §4, §5, §6

Chain of CDK12 (Q9NYV4 whole entry): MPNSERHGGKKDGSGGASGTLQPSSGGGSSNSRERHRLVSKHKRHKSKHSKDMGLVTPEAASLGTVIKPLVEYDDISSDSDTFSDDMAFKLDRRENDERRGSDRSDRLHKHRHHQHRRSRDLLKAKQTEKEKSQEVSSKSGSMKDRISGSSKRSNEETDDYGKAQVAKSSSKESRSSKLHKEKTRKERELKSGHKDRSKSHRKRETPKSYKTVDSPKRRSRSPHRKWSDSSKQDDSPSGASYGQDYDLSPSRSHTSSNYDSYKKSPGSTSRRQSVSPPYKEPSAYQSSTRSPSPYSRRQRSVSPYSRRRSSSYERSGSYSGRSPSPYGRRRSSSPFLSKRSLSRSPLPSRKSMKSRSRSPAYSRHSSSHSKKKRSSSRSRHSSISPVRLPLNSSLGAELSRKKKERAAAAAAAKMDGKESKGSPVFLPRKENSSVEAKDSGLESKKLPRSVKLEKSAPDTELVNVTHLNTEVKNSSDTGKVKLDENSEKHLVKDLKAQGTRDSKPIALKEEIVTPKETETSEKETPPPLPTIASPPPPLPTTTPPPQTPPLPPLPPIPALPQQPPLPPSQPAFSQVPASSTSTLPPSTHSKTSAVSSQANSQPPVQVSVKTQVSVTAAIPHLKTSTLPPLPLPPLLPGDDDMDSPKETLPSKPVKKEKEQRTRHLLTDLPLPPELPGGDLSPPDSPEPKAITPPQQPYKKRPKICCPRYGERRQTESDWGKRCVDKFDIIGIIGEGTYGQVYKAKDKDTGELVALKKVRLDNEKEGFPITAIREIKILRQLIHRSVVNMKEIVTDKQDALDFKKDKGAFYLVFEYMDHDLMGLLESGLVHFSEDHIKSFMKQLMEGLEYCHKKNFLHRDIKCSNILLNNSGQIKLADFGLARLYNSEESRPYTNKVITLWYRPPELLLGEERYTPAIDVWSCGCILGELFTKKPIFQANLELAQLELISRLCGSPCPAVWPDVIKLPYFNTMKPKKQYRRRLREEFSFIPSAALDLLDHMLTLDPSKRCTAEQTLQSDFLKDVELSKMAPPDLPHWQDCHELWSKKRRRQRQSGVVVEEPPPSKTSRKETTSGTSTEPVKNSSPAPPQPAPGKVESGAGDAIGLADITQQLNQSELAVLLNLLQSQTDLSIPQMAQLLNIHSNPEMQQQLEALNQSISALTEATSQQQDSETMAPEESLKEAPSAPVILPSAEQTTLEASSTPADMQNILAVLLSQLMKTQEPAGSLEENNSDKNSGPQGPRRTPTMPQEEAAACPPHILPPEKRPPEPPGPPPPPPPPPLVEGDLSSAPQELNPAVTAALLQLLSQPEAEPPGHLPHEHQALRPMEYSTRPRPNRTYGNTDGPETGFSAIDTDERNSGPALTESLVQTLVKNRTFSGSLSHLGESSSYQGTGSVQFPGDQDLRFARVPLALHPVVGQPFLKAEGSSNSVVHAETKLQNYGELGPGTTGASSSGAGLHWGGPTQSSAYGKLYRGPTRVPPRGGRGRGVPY
Chain of CDK12 (O75909 whole entry partner): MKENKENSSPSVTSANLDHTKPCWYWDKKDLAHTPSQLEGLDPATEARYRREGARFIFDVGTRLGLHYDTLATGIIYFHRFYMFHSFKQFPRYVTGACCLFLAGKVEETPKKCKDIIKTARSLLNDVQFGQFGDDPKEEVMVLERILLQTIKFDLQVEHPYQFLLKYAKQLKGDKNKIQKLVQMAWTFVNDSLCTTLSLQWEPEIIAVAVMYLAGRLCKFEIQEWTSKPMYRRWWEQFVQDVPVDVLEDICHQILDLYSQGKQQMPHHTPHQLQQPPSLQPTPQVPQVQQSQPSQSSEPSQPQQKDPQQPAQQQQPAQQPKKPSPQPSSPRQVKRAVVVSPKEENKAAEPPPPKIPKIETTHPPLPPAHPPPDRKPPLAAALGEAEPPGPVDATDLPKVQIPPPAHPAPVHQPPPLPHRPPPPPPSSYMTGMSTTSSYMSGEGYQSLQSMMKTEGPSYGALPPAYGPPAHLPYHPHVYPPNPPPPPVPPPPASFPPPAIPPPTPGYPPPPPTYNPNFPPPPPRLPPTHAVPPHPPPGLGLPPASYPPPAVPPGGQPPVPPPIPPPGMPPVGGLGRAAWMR
T1 sequence (Q14004 whole entry): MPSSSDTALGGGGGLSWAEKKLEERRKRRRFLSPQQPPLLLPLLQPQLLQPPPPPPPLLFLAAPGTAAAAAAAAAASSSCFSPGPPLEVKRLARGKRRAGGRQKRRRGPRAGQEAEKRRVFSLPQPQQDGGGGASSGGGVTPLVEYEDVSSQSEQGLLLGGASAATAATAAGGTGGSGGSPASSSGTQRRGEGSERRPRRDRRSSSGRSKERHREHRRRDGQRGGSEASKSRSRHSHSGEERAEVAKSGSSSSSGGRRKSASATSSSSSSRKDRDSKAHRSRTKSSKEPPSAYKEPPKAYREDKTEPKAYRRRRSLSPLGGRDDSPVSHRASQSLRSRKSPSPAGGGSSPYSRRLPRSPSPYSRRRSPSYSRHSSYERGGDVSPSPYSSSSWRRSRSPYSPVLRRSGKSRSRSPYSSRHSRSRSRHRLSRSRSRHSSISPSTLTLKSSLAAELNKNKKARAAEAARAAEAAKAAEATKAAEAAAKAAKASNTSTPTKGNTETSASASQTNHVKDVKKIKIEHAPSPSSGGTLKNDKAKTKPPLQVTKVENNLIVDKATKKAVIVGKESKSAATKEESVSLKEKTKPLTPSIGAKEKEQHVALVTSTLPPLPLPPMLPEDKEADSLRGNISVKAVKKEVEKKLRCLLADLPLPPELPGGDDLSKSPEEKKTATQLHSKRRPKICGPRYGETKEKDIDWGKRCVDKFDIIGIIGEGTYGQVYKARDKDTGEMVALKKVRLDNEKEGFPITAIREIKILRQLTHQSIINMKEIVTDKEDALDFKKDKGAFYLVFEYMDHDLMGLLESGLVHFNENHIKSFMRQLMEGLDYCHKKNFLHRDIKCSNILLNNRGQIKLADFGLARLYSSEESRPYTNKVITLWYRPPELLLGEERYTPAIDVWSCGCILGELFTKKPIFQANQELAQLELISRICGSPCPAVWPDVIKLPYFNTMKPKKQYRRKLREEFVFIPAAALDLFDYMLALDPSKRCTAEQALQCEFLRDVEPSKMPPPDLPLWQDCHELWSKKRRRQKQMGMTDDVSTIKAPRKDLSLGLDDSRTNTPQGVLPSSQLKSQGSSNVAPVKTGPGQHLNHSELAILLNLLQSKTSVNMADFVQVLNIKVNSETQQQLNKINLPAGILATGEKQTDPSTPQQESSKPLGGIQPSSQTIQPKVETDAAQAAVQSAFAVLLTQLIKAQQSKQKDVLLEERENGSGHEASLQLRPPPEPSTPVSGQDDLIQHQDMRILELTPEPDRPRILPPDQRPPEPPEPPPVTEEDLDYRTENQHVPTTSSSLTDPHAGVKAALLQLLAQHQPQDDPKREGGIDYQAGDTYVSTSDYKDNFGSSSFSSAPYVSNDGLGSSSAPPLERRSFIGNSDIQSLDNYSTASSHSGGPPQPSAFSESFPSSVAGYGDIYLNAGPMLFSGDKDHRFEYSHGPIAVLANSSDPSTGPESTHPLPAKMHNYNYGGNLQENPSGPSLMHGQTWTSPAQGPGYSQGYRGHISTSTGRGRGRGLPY
T1 sequence (O75909 whole entry partner): as the sequence (O75909 whole entry partner) above

**Q.** With `Cc1ncsc1-c1ccc([C@H](C)NC(=O)[C@@H]2C[C@@H](O)CN2C(=O)[C@@H](NC(=O)CN2CCN(c3ncc(-c4ccc(N(C(=O)NCc5ccccc5)[C@H]5CC[C@H](Nc6ccc(C#N)cn6)CC5)cc4)cn3)CC2)C(C)(C)C)cc1` [Formula 45] as the compound, how does the half-life [1] read?
**A.** The half-life was greater than 45 min.

**Q.** What about the DC50 ([2]; DC50 classes, cell line not given, read-out: CDK12 degradation Activity) of the same compound?
**A.** The DC50 was less than 100 nM.

**Q.** What about the “degradation of CDK12” value ([2]; FIGS. 2-9) of the same compound?
**A.** Its value is “has the strongest degradation effect”.

**Q.** And the DC50 ([2]; HCT116, colorectal cancer cells, read-out: CDK12 DC50)?
**A.** Its DC50 is 34 nM.

**Q.** And the DC50 ([2]; KASUMI-1, leukemia cells, read-out: CDK12 DC50)?
**A.** Its DC50 is 28 nM.

**Q.** What about the DC50 ([2]; MDA-MB-231, breast cancer cells, read-out: CDK12 DC50) of the same compound?
**A.** Its DC50 is 29 nM.

**Q.** What about the DC50 ([2]; MV4-11, leukemia cells, read-out: CDK12 DC50) of the same compound?
**A.** Its DC50 is 30 nM.

**Q.** What about the half-life [3] of the same compound?
**A.** The half-life was greater than 45 min.

**Q.** And the DC50 ([4]; DC50 classes, cell line not given, read-out: CDK13 degradation Activity)?
**A.** Its DC50 is less than 100 nM.

**Q.** What about the “degradation of CDK13” value ([4]; FIGS. 2-9) of the same compound?
**A.** The value was “has the strongest degradation effect”.

**Q.** What about the DC50 ([4]; KASUMI-1, leukemia cells, read-out: CDK13 DC50) of the same compound?
**A.** The DC50 was 17 nM.

**Q.** And the DC50 ([4]; MDA-MB-231, breast cancer cells, read-out: CDK13 DC50)?
**A.** Its DC50 is 18 nM.

**Q.** And the DC50 ([4]; MV4-11, leukemia cells, read-out: CDK13 DC50)?
**A.** The DC50 was 21 nM.

**Q.** And the DC50 [5]?
**A.** Its DC50 is 24 nM.

**Q.** What about the half-life [6] of the same compound?
**A.** Its half-life is greater than 45 min.

**Q.** What about the half-life [7] of the same compound?
**A.** Its half-life is greater than 45 min.
